Assay results reported in patent US7144710B2, “Method for detecting inflammation and inflammatory conditions” (Trustees of Dartmouth College, priority 2000, dated 2006).

What was measured:
[1] = system: monocyte CD163 expression; experiment: CD163 expression on monocytes of cultured PBMCs, staining and flow cytometric analysis; assay type: cell-based, human; details: for increase of monocyte CD163 expression: PBMCs treated 24 hours, agent alone, 200 nM DEX, vs control media, p<0.01; for CD163 expression of cytokine given in combination with DEX over DEX treatment alone: PBMCs 24 hours
Description: To assess whether different cytokines could influence CD163 expression, freshly isolated PBMCs were cultured for 24 hours in the presence of various cytokines, 200 nM DEX (as a positive control for CD163 upregulation), or control media. The cells were then subjected to staining and flow cytometric analysis.
For cytokine treatment studies, isolated PBMCs were suspended in hepes buffered RPMI 1640/0.05% gentamicin/10% FBS at a concentration of 2.0×10^6 to 2.5×10^6 cells/ml and cultured in 96 well plates at 37° C. and 5% CO2 in the presence of various mediators (Table 1). Mononuclear cells were stained for flow cytometric analysis after 24 hours in culture unless otherwise indicated. This enhanced cell recovery because monocytes, which initially adhere to plastic vessels, transiently detach from culture wells at 24–48 hours.
All staining procedures were performed at 4 C. Briefly, cultured PBMCs were incubated with normal human IgG (6 mg/ml) to block Fc receptor-specific binding of mAbs and 30 μg/ml of the isotype control mAb P3 or a saturating amount of mAb MAC2-48 (20 μg/ml) for one hour. Cells were then washed and stained for one hour with 17.5 μg/ml FITC labeled goat F(ab=)2 anti-mouse Ig. The cells were again washed and fixed with 1% methanol free formalin.
Cell fluorescence of monocytes gated using forward and side scatter was analyzed using a Becton Dickenson FACScan (Franklin Lakes, N.J.). Mean fluorescence intensity (MFI) was calculated by subtracting the MFI of the P3 stained mononuclear cells from the MFI of the corresponding Mac 2-48 stained cells.

[2] = system: CRP, TNFA, IL-6, IL-10, cortisol in plasma; experiment: Plasma acute phase proteins, glucocorticoids and cytokines of healthy volunteers after LPS bolus infusion; assay type: in vivo, human; details: post LPS administration
Description: In order to more closely mimic the in vivo inflammatory response to infection in a more controlled setting than the cardiac patients described above, healthy volunteers were administered a 4 ng/kg bolus infusion of LPS and monitored the levels of soluble CD163 in plasma. […] Plasma samples were taken at baseline (before administration of LPS), and then at various time points after LPS infusion up to 72 hours after infusion initiation. Levels of CD163 in plasma were measured using the assay of the present invention. […] In the one volunteer where levels had declined at […], levels remained elevated up to 4 hours before returning to baseline levels by 8 hours. Changes in levels of known acute phase proteins, glucocorticoids, and pro- and anti-inflammatory cytokines were also monitored in order to determine if their levels correlated with the appearance of soluble CD163 in plasma. […] Plasma levels of TNFA, IL-6 and IL-10, all known to be produced following LPS infusion, peaked at 1, 2, and 4 hours post LPS administration, respectively. […] Therefore, CD163 acts as an early signaling event in the inflammatory response cascade.

soluble CD163 in plasma = experiment: Soluble CD163 in plasma of healthy volunteers after LPS bolus infusion (ELISA); assay type: in vivo, human; details: 4 ng/kg bolus infusion of LPS
Description: In order to provide for use of CD163 as a biomarker of inflammation, a method for detection of CD163 in biological samples such as plasma was developed. The assay of detection is an ELISA assay using a CD163-specific antibody such as MAC2-158 or MAC2-48 as the CD163 capture antibody and the commercially available biotinylated antibody RM3/1 as the CD163 detection antibody. Briefly, plates were coated with purified MAC2-158 or MAC2-48 antibody and incubated overnight at 4 C. After washing, non-specific binding was blocked by adding blocking buffer to each plate well and incubating for 30 minutes at room temperature. […]
In order to more closely mimic the in vivo inflammatory response to infection in a more controlled setting than the cardiac patients described above, healthy volunteers were administered a 4 ng/kg bolus infusion of LPS and monitored the levels of soluble CD163 in plasma. […] Levels of CD163 in plasma were measured using the assay of the present invention. […] Changes in levels of known acute phase proteins, glucocorticoids, and pro- and anti-inflammatory cytokines were also monitored in order to determine if their levels correlated with the appearance of soluble CD163 in plasma. […]
ELISA plates were coated, 100 μl per well, with 5 μg/ml purified MAC2-158 (coating buffer of 0.1 M NaHCO30.5 M NaCl, adjusted to pH 8.4 with HCl). […] The plates were read on a spectrophotometer at […].

CD163 expression = experiment: Monocytes cultured with LPS and/or DEX, immunofluorescence detection of surface CD163; assay type: cell-based, human; details: monocytes cultured with LPS alone
Description: In addition to testing the effects of cytokines in combination with glucocorticoids on levels of CD163, studies were performed to examine the effects of glucocorticoids in combination with lipopolysaccharide (LPS). […] However, when monocytes were cultured for 48 hours with DEX combined with LPS, their was a synergistic increase in CD163 expression, where the effect of DEX alone was increased by more than 2-fold when LPS treatment was added.

monocyte surface CD163 [3] = experiment: Shedding of monocyte surface CD163 in vitro; assay type: cell-based, human; details: for shedding of surface CD163 from cells pre-treated with glucocorticoids plus LPS: subsequent treatment with the agent
Description: Therefore, like PMA, LPS is capable of inducing CD163 shedding. LPS-induced shedding occurred even with monocytes that had been cultured for 48 hours in DEX and thus had 5- to 10-fold higher levels of surface CD163 than freshly isolated monocytes. […] This LPS-conferred resistance to subsequent LPS-induced shedding of CD163 is similar to reported endotoxin pre-conditioning for resistance to subsequent inflammatory insults.

monocyte surface CD163 [4] = details: Droste et al. 1999; blocked by protease inhibitors; cited from earlier work
CD163 = experiment: Western blots of monocyte lysates; assay type: cell-based, human

## C[C@@H]1C[C@H]2[C@@H]3CCC4=CC(=O)C=C[C@]4(C)[C@@]3(F)[C@@H](O)C[C@]2(C)[C@@]1(O)C(=O)CO [DEX]
[1]
  increase of monocyte CD163 expression: ~7 fold

## lipopolysaccharide [LPS]
[2]
  time at which plasma cortisol began to increase: 4 h
  time by which plasma CRP increased: ≤ 8 h
  time of peak of plasma CRP: 24 h
  time of peak of plasma IL-6: 2 h
  time of peak of plasma IL-10: 4 h
  time of peak of plasma TNFA: 1 h
  time of peak of plasma cortisol: 6 h
Soluble CD163 in plasma
  increase of soluble CD163 levels in plasma compared to baseline: ≤ 7 fold
CD163 expression
  CD163 detected on monocyte surface: low levels of CD163
Monocyte surface CD163 [3]; in vitro
  time to shedding of monocyte surface CD163: ≤ 2 h
Monocyte surface CD163 [3]
  shedding of surface CD163 from cells pre-treated with glucocorticoids plus LPS: largely resistant to shedding

## CCCCCCCCCCCCCC(=O)O[C@@H]1[C@@H](C)[C@@]2(O)[C@@H](C=C(CO)C[C@]3(O)C(=O)C(C)=C[C@@H]23)[C@@H]2C(C)(C)[C@]12OC(C)=O [PMA]
Monocyte surface CD163 [4]
  shedding of surface CD163 from monocytes in culture: rapid shedding
Monocyte surface CD163 [3]
  shedding of surface CD163 from cells pre-treated with glucocorticoids plus LPS: remained sensitive

## GM-CSF
[1]
  CD163 expression of cytokine given in combination with DEX over DEX treatment alone: does not enhance CD163 expression

B1: IL-4: cytokine interleukin-4 (protein, UniProt P05112 25-153, looked up)
Interleukin-4: HKCDITLQEIIKTLNSLTEQKTLCTELTVTDIFAASKNTTEKETFCRAATVLRQFYSHHEKDTRCLGATAQQFHRHKQLIRFLKRLDRNLWGLAGLNSCPVKEANQSTLENFLERLKTIMREKYSKCSS
[1]
  CD163 expression of cytokine given in combination with DEX over DEX treatment alone: does not enhance CD163 expression

B2: IL-10: cytokine, originally known as cytokine synthesis inhibitory factor (protein, UniProt P22301 19-178, looked up)
Interleukin-10: SPGQGTQSENSCTHFPGNLPNMLRDLRDAFSRVKTFFQMKDQLDNLLLKESLLEDFKGYLGCQALSEMIQFYLEEVMPQAENQDPDIKAHVNSLGENLKTLRLRLRRCHRFLPCENKSKAVEQVKNAFNKLQEKGIYKAMSEFDIFINYIEAYMTMKIRN
CD163
  CD163 expression by western blot: increased expression of CD163
[1]
  CD163 expression of cytokine given in combination with DEX over DEX treatment alone: significantly increased CD163 expression
  increase of monocyte CD163 expression: approximately 4 fold
